Reference: the NIST ThermoML archive (doi:10.1016/j.jct.2018.05.027)
± gives the expanded uncertainty stated by the source.

Assay: xn = mol fraction of the nth substance listed
Settings: Liquid, Vibrating wire viscometry

Cc1ccc(C)c(C)c1 [1,2,4-trimethylbenzene] + CCC(C)O
viscosity [mPa·s]
Settings	x2 = 0.3011	x2 = 0.5001	x2 = 0.7999
293.15 K, 100 kPa	0.9506 ± 0.016	1.108 ± 0.018	1.834 ± 0.03
293.15 K, 1000 kPa	0.9531 ± 0.016	1.117 ± 0.018	1.863 ± 0.03
293.15 K, 5000 kPa	0.9988 ± 0.017	1.173 ± 0.019	1.964 ± 0.032
293.15 K, 10000 kPa	1.051 ± 0.017	1.235 ± 0.02	2.099 ± 0.034
293.15 K, 20000 kPa	1.137 ± 0.019	1.329 ± 0.022	2.326 ± 0.037
293.15 K, 30000 kPa	1.238 ± 0.02	1.462 ± 0.024	2.611 ± 0.042
293.15 K, 40000 kPa	1.334 ± 0.022	1.591 ± 0.026	2.897 ± 0.046
293.15 K, 50000 kPa	1.452 ± 0.024	1.739 ± 0.028	3.229 ± 0.051
293.15 K, 60000 kPa	1.57 ± 0.025	1.906 ± 0.031	3.561 ± 0.056
293.15 K, 70000 kPa	1.702 ± 0.027	2.061 ± 0.033	3.917 ± 0.062
293.15 K, 80000 kPa	1.851 ± 0.03	2.257 ± 0.036	4.274 ± 0.068
293.15 K, 100000 kPa	2.152 ± 0.034	2.62 ± 0.042	5.09 ± 0.08
293.15 K, 120000 kPa	2.47 ± 0.039	3.033 ± 0.048	6.117 ± 0.096
293.15 K, 140000 kPa	2.838 ± 0.045	3.493 ± 0.055	7.143 ± 0.11
313.15 K, 100 kPa	0.708 ± 0.012	0.7802 ± 0.013	1.097 ± 0.018
313.15 K, 1000 kPa	0.7098 ± 0.012	0.7964 ± 0.014	1.131 ± 0.019
313.15 K, 5000 kPa	0.7427 ± 0.013	0.8335 ± 0.014	1.187 ± 0.02
313.15 K, 10000 kPa	0.7727 ± 0.013	0.8676 ± 0.015	1.244 ± 0.021
313.15 K, 20000 kPa	0.8356 ± 0.014	0.9318 ± 0.016	1.363 ± 0.022
313.15 K, 30000 kPa	0.9034 ± 0.015	1.031 ± 0.017	1.515 ± 0.025
313.15 K, 40000 kPa	0.9814 ± 0.016	1.108 ± 0.018	1.666 ± 0.027
313.15 K, 50000 kPa	1.055 ± 0.017	1.204 ± 0.02	1.835 ± 0.03
313.15 K, 60000 kPa	1.132 ± 0.019	1.3 ± 0.021	2.005 ± 0.032
313.15 K, 70000 kPa	1.224 ± 0.02	1.394 ± 0.023	2.187 ± 0.035
313.15 K, 80000 kPa	1.303 ± 0.021	1.502 ± 0.024	2.368 ± 0.038
313.15 K, 100000 kPa	1.491 ± 0.024	1.716 ± 0.028	2.741 ± 0.044
313.15 K, 120000 kPa	1.667 ± 0.027	1.936 ± 0.031	3.219 ± 0.051
313.15 K, 140000 kPa	1.904 ± 0.031	2.192 ± 0.035	3.693 ± 0.059
